Data published in patent US12522601B2, “1,3,4-oxadiazole derivative compounds as histone deacetylase 6 inhibitor, and the pharmaceutical composition comprising the same” (CHONG KUN DANG PHARMACEUTICAL CORP., priority 2020, dated 2026).

Key:
human recombinant HDAC6 = biological target: T1, human recombinant HDAC6 (Homo sapiens, UniProt Q9UBN7); assay: In vitro HDAC enzyme activity inhibition assay, HDAC6 (HDAC Fluorimetric Drug Discovery Kit); format: biochemical; settings: for HDAC6 Selectivity (fold): HDAC6 versus HDAC1; for IC50: human recombinant HDAC6, same protocol as the HDAC1 test
T1 construct: purchased Calbiochem Inc. 382180
T1 sequence (Q9UBN7 1-1215): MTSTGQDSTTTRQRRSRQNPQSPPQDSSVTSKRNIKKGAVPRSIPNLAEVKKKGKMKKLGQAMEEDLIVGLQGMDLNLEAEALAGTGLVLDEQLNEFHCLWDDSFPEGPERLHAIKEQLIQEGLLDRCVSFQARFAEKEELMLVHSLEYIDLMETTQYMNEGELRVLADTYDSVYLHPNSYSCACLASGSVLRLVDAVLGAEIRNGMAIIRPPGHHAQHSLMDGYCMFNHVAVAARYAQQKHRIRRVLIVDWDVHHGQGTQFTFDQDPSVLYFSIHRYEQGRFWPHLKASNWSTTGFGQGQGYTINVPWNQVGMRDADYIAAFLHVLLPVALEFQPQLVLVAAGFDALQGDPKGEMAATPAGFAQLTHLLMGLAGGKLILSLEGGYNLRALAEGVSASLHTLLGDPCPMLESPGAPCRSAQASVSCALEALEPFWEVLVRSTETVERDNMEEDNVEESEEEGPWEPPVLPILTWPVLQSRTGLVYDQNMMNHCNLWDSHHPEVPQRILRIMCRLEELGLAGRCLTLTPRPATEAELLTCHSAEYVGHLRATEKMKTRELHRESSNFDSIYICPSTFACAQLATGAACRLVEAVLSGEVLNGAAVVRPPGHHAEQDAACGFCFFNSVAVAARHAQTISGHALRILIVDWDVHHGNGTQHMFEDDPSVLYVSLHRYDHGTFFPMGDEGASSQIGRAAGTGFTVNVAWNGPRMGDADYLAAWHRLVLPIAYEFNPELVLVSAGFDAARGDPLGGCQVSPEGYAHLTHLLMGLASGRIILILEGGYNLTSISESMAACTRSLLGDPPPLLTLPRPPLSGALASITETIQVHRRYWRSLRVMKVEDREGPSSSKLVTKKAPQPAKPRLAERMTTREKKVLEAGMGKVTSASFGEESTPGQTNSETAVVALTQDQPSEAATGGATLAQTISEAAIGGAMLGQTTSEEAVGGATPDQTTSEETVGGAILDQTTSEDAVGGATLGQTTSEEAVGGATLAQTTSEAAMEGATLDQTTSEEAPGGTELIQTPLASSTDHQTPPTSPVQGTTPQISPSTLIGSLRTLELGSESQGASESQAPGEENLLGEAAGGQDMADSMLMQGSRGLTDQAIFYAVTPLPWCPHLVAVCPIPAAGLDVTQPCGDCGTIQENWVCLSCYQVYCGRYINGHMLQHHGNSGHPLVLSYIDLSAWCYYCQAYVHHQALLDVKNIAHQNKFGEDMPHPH
How it was run: (§1)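 Fluorimetric deacetylase kit; 0.3 μg human recombinant enzyme with 10 μM Fluor de Lys-SIRT1 substrate, 60 min at 30° C, then developer 30 min. Fluorescence read at Ex 360/Em 460; IC50 from 5-fold compound dilutions. HDAC1 and HDAC6 run by the same protocol.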

human recombinant HDAC1 = biological target: T2, human recombinant HDAC1 (Homo sapiens, UniProt Q13547); assay: In vitro HDAC enzyme activity inhibition assay, HDAC1 (HDAC Fluorimetric Drug Discovery Kit); format: biochemical; settings: human recombinant HDAC1, Fluor de Lys-SIRT1 substrate 10 μM, 30° C. for 60 minutes
T2 construct: purchased Enzo Life Sciences, Inc. BML-SE456
How it was run: as §1

T2 sequence (Q13547 whole entry): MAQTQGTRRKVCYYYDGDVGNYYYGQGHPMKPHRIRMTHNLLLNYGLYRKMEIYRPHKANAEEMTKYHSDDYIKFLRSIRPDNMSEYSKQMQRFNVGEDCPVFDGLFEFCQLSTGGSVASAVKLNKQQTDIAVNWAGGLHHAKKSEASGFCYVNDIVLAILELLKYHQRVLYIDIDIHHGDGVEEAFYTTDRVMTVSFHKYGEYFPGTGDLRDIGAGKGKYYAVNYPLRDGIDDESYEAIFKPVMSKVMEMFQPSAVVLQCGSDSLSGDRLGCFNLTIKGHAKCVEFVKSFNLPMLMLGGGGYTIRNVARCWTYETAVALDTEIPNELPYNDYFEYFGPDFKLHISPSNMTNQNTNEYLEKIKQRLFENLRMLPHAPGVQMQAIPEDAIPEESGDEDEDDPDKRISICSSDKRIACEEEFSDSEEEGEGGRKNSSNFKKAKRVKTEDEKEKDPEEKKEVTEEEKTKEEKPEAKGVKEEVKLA

| Compound | HDAC6 Selectivity (fold) (human recombinant HDAC6) | IC50 (human recombinant HDAC6) [nM] | IC50 (human recombinant HDAC1) [nM] |
| --- | --- | --- | --- |
| O=C(C1CCN(C2CCOCC2)CC1)N(Cc1cn2ccc(-c3nnc(C(F)F)o3)cc2n1)c1ccccc1 [Compound 4120, N-((7-(5-(difluoromethyl)-1,3,4-oxadiazol-2-yl)imidazo[1,2-a]pyridin-2-yl)methyl)-N-phenyl-1-(tetrahydro-2H-pyran-4-yl)piperidine-4-carboxamide] | 98 | 509 | > 50000 |
| O=C(C1CCN(C2CCC(F)(F)CC2)CC1)N(Cc1cn2ccc(-c3nnc(C(F)F)o3)cc2n1)c1ccccc1 [Compound 4121, 1-(4,4-difluorocyclohexyl)-N-((7-(5-(difluoromethyl)-1,3,4-oxadiazol-2-yl)imidazo[1,2-a]pyridin-2-yl)methyl)-N-phenylpiperidine-4-carboxamide] | 122 | 411 | > 50000 |
| CC(=O)N1CCC(C(=O)N(Cc2cn3ccc(-c4nnc(C(F)F)o4)cc3n2)c2ccccc2)CC1 [Compound 4122, 1-acetyl-N-((7-(5-(difluoromethyl)-1,3,4-oxadiazol-2-yl)imidazo[1,2-a]pyridin-2-yl)methyl)-N-phenylpiperidine-4-carboxamide] | 142 | 353 | > 50000 |
| CCC(=O)N1CCC(C(=O)N(Cc2cn3ccc(-c4nnc(C(F)F)o4)cc3n2)c2ccccc2)CC1 [Compound 4123, N-((7-(5-(difluoromethyl)-1,3,4-oxadiazol-2-yl)imidazo[1,2-a]pyridin-2-yl)methyl)-N-phenyl-1-propionylpiperidine-4-carboxamide] | 163 | 307 | > 50000 |
| O=C(CO)N1CCC(C(=O)N(Cc2cn3ccc(-c4nnc(C(F)F)o4)cc3n2)c2ccccc2)CC1 [Compound 4124, N-((7-(5-(difluoromethyl)-1,3,4-oxadiazol-2-yl)imidazo[1,2-a]pyridin-2-yl)methyl)-1-(2-hydroxyacetyl)-N-phenylpiperidine-4-carboxamide] | 147 | 341 | > 50000 |
| O=C(C1CCC1)N1CCC(C(=O)N(Cc2cn3ccc(-c4nnc(C(F)F)o4)cc3n2)c2ccccc2)CC1 [Compound 4125, 1-(cyclobutanecarbonyl)-N-((7-(5-(difluoromethyl)-1,3,4-oxadiazol-2-yl)imidazo[1,2-a]pyridine-2-yl)methyl)-N-phenylpiperidine-4-carboxamide] | 152 | 329 | > 50000 |
| O=C(C1COC1)N1CCC(C(=O)N(Cc2cn3ccc(-c4nnc(C(F)F)o4)cc3n2)c2ccccc2)CC1 [Compound 4126, N-((7-(5-(difluoromethyl)-1,3,4-oxadiazol-2-yl)imidazo[1,2-a]pyridin-2-yl)methyl)-1-(oxetan-3-carbonyl)-N-phenylpiperidine-4-carboxamide] | 124 | 404 | > 50000 |
| O=C(C1CCN(C(=O)C(F)(F)F)CC1)N(Cc1cn2ccc(-c3nnc(C(F)F)o3)cc2n1)c1ccccc1 [Compound 4127, N-((7-(5-(difluoromethyl)-1,3,4-oxadiazol-2-yl)imidazo[1,2-a]pyridin-2-yl)methyl)-N-phenyl-1-(2,2,2-trifluoroacetyl)piperidine-4-carboxamide] | 82 | 612 | > 50000 |
| CS(=O)(=O)N1CCC(C(=O)N(Cc2cn3ccc(-c4nnc(C(F)F)o4)cc3n2)c2ccccc2)CC1 [Compound 4128, N-((7-(5-(difluoromethyl)-1,3,4-oxadiazol-2-yl)imidazo[1,2-a]pyridin-2-yl)methyl)-1-(methylsulfonyl)-N-phenylpiperidine-4-carboxamide] | 159 | 315 | > 50000 |
| COC(=O)N1CCC(C(=O)N(Cc2cn3ccc(-c4nnc(C(F)F)o4)cc3n2)c2ccccc2)CC1 [Compound 4129, methyl 4-(((7-(5-(difluoromethyl)-1,3,4-oxadiazol-2-yl)imidazo[1,2-a]pyridin-2-yl)methyl)(phenyl)carbamoyl)piperidine-1-carboxylate] | 125 | 401 | > 50000 |
| CN(C)C(=O)N1CCC(C(=O)N(Cc2cn3ccc(-c4nnc(C(F)F)o4)cc3n2)c2ccccc2)CC1 [Compound 4130, N4-((7-(5-(difluoromethyl)-1,3,4-oxadiazol-2-yl)imidazo[1,2-a]pyridin-2-yl)methyl)-N1,N1-dimethyl-N4-phenylpiperidine-1,4-dicarboxamide] | 133 | 375 | > 50000 |
| O=C(C1CCN(c2ccccn2)CC1)N(Cc1cn2ccc(-c3nnc(C(F)F)o3)cc2n1)c1ccccc1 [Compound 4131, N-((7-(5-(difluoromethyl)-1,3,4-oxadiazol-2-yl)imidazo[1,2-a]pyridin-2-yl)methyl)-N-phenyl-1-(pyridin-2-yl)piperidine-4-carboxamide] | 91 | 547 | > 50000 |
| O=C(C1CCN(c2ncccn2)CC1)N(Cc1cn2ccc(-c3nnc(C(F)F)o3)cc2n1)c1ccccc1 [Compound 4132, N-((7-(5-(difluoromethyl)-1,3,4-oxadiazol-2-yl)imidazo[1,2-a]pyridin-2-yl)methyl)-N-phenyl-1-(pyrimidin-2-yl)piperidine-4-carboxamide] | 76 | 655 | > 50000 |
| CN1CCC(C(=O)N(Cc2cn3ccc(-c4nnc(C(F)F)o4)cc3n2)c2cccc(F)c2)CC1 [Compound 4137, N-((7-(5-(difluoromethyl)-1,3,4-oxadiazol-2-yl)imidazo[1,2-a]pyridin-2-yl)methyl)-N-(3-fluorophenyl)-1-methylpiperidine-4-carboxamide] | 283 | 177 | > 50000 |
| CCN1CCC(C(=O)N(Cc2cn3ccc(-c4nnc(C(F)F)o4)cc3n2)c2cccc(F)c2)CC1 [Compound 4138, N-((7-(5-(difluoromethyl)-1,3,4-oxadiazol-2-yl)imidazo[1,2-a]pyridin-2-yl)methyl)-1-ethyl-N-(3-fluorophenyl)piperidine-4-carboxamide] | 292 | 171 | > 50000 |
| CC(C)N1CCC(C(=O)N(Cc2cn3ccc(-c4nnc(C(F)F)o4)cc3n2)c2cccc(F)c2)CC1 [Compound 4139, N-((7-(5-(difluoromethyl)-1,3,4-oxadiazol-2-yl)imidazo[1,2-a]pyridin-2-yl)methyl)-N-(3-fluorophenyl)-1-isopropylpiperidine-4-carboxamide] | 403 | 124 | > 50000 |
| CC(CO)N1CCC(C(=O)N(Cc2cn3ccc(-c4nnc(C(F)F)o4)cc3n2)c2cccc(F)c2)CC1 (stereo not drawn) [Compound 4140, N-((7-(5-(difluoromethyl)-1,3,4-oxadiazol-2-yl)imidazo[1,2-a]pyridin-2-yl)methyl)-N-(3-fluorophenyl)-1-(1-hydroxypropan-2-yl)piperidine-4-carboxamide] | 246 | 203 | > 50000 |
| O=C(C1CCN(C2CCC2)CC1)N(Cc1cn2ccc(-c3nnc(C(F)F)o3)cc2n1)c1cccc(F)c1 [Compound 4141, 1-cyclobutyl-N-((7-(5-(difluoromethyl)-1,3,4-oxadiazol-2-yl)imidazo[1,2-a]pyridin-2-yl)methyl)-N-(3-fluorophenyl)piperidine-4-carboxamide] | 204 | 245 | > 50000 |
| O=C(C1CCN(C2COC2)CC1)N(Cc1cn2ccc(-c3nnc(C(F)F)o3)cc2n1)c1cccc(F)c1 [Compound 4142, N-((7-(5-(difluoromethyl)-1,3,4-oxadiazol-2-yl)imidazo[1,2-a]pyridin-2-yl)methyl)-N-(3-fluorophenyl)-1-(oxetan-3-yl)piperidine-4-carboxamide] | 234 | 214 | > 50000 |
